Assay results from patent US20120152149A1, “USE OF 1,3-DIOLS AS BIOCIDES” (BASF SE, priority 2009, published 2012).

What was measured:
Format in all cases: cell-based
[1] = test system: S. aureus ATCC 6538; assay: Preservation stress test, example formulation 1 (standard emulsion O/W); settings: 1% active substance
Outline: (§1)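 O/W emulsion containing 1% diol (water as placebo), inoculated individually or as mixed culture at 10^5-10^6 CFU/g and held 28 d at 20-25° C. Surviving counts at 0, 2, 7, 14 and 28 d after dilution in neutralising phosphate buffer pH 7.4 with Tween 80/lecithin; expressed as log reduction from initial count.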

[2] = test system: P. aeruginosa ATCC 15442; assay: as above; settings: 1% active substance
Outline: as §1

[3] = test system: E. coli ATCC 10536; assay: as above; settings: 1% active substance
Outline: as §1

[4] = test system: P. aeruginosa ATCC 15442; assay: Suspension test EN 1040, bactericidal activity; settings: 1000 ppm of active substance
Procedure: The bactericidal activity of the substances of this invention was carried out in a suspension test corresponding to the European standard EN 1040 and compared with the activities of customary commercial products. For this, only relatively small modifications were made. The substances of the formula (1) were dissolved in water or ethanol to give a 1% strength stock solution. For determining the bactericidal activities, the test mixtures were selected such that 1000 ppm of active substance was present in an aqueous solution. The procedure was the same with the comparison samples. For the results shown in table 2, the test mixtures were inoculated with the following bacterial strains such that the stated germ densities were present in the test mixtures. P. aeruginosa ATCC 15442 1−2×10^7 CFU/ml The test mixtures were incubated at room temperature (22° C.+/−2° C.). After defined contact times, aliquots of 1 ml were taken in order to determine the surviving germ count. For the deactivation of the microbicidal activity of the diols, the aliquots were diluted in 1:10 dilution steps in a solution of TS broth with 10% Tween, 3% lecithin, 0.1% histidines and 0.5% sodium thiosulfate and the 10^−2 and 10^−3 dilution stages were used for determining the surviving germ count. For this purpose, corresponding aliquots were plated out on Caso medium with inhibitor (Merck) and incubated at 37° C. for 24 h. The ascertained surviving germ counts were in each case compared with a mixture containing water (water control) by determining the logarithmic reduction in the surviving germ counts based on the water control.

[5] = test system: C. albicans ATCC 10231; assay: Suspension test EN 1275, activity against yeasts; settings: 1000 ppm of active substance
Procedure: The fungicidal activity was determined in accordance with European standard EN 1275 and compared with the activities of customary commercial products, with only slight modifications having been carried out. The substances of the formula (1) were dissolved in water or ethanol to give a 1% strength stock solution. To determine the microbicidal activities of the diols against yeasts, the test mixtures were selected such that 1000 ppm of active substance was present in an aqueous solution. For the results shown in table 2, the test mixtures were inoculated with the following yeast and mold strains such that the stated germ densities were present in the test mixtures. C. albicans ATCC 10231 1−2×10^6 CFU/ml The test mixtures were incubated at room temperature (22° C.+/−2° C.). After defined contact times, aliquots of 1 ml were taken in order to determine the surviving germ count. For the deactivation of the microbicidal activity of the diols, the aliquots were diluted in 1:10 dilution steps in a solution of Sabouraud medium with 10% Tween, 3% lecithin, 0.1% histidines and 0.5% sodium thiosulfate and the 10^−2, 10^−3 and 10^−4 dilution stages were used for determining the surviving germ count. For this, corresponding aliquots were plated out on Sabouraud medium with inhibitor and incubated at 30° C. for 2 d. The ascertained surviving germ counts were in each case compared with a mixture containing water (water control) by determining the logarithmic reduction in the surviving germ counts based on the water control.

SMILES: CCCC(O)CO (centres unmarked) [1,2-Pentanediol, 1,2-pentanediol, reference compound]
- Microbicidal activity given as logarithmic reduction in germ count ([1]; 48 h): 0 log. Red.
- Microbicidal activity given as logarithmic reduction in germ count ([1]; 7 d): 0 log. Red.
- Microbicidal activity given as logarithmic reduction in germ count ([1]; 14 d): 0 log. Red.
- Microbicidal activity given as logarithmic reduction in germ count ([2]; 48 h): 0 log. Red.
- Microbicidal activity given as logarithmic reduction in germ count ([2]; 7 d): ≧3 log. Red.
- Microbicidal activity given as logarithmic reduction in germ count ([2]; 14 d): ≧3 log. Red.
- Microbicidal activity given as logarithmic reduction in germ count ([3]; 48 h): 0 log. Red.
- Microbicidal activity given as logarithmic reduction in germ count ([3]; 7 d): 0 log. Red.
- Microbicidal activity given as logarithmic reduction in germ count ([3]; 14 d): 0 log. Red.
- Microbicidal activity given as logarithmic reduction in germ count ([4]; contact time 5 min): <1 log. red.

SMILES: CCCCCCCCC(C)(CO)CO [OMPD, 2-octyl-2-methylpropane-1,3-diol]
- Microbicidal activity given as logarithmic reduction in germ count ([5]; contact time 5 min): >4 log. red.
- Microbicidal activity given as logarithmic reduction in germ count ([5]; contact time 30 min): >4 log. red.
- Microbicidal activity given as logarithmic reduction in germ count ([5]; contact time 24 h): >4 log. red.
- Microbicidal activity given as logarithmic reduction in germ count ([4]; contact time 5 min): 4.5 log. red.
- Microbicidal activity given as logarithmic reduction in germ count ([4]; contact time 30 min): 4.7 log. red.

SMILES: CCCCCC(CO)(CO)CCC [PPPD, 2-pentyl-2-propylpropane-1,3-diol]
- Microbicidal activity given as logarithmic reduction in germ count ([5]; contact time 5 min): 1.7 log. red.
- Microbicidal activity given as logarithmic reduction in germ count ([5]; contact time 30 min): >5 log. red.
- Microbicidal activity given as logarithmic reduction in germ count ([5]; contact time 24 h): >5 log. red.
- Microbicidal activity given as logarithmic reduction in germ count ([4]; contact time 5 min): 3.2 log. red.
- Microbicidal activity given as logarithmic reduction in germ count ([4]; contact time 30 min): 3.1 log. red.
